Measured values: patent publication US5691311A (Biogen, Inc., priority 1995, dated 1997)
Where two headings read alike, the source gives them in different places.

Assays:
APTT = assay: Systemic anticoagulant effect (APTT) of antithrombotic agents; assay type: in vivo, baboon; conditions: dose not given
Description: We also tested the effects of a variety of other agents on template bleeding time in the baboon, as well as on systemic anticoagulant effects (as measured by APTT).

hemostasis = assay: Template bleeding time; assay type: in vivo, baboon
[1] = test system: platelet-dependent thrombosis; conditions: collagen-coated surfaces, reported values; cited from earlier work
human α-thrombin [2] = target: T1, human α-thrombin (Homo sapiens, UniProt P00734); assay: Thrombin-catalyzed hydrolysis of Spectrozyme TH; assay type: biochemical; conditions: for Ki: method of Example 9, Spectrozyme TH; for inhibitory activity versus linker length: FIG. 6
T1 construct: proteolysis of the B-chain of α-thrombin; human α-thrombin-catalyzed hydrolysis of Spectrozyme TH
Procedure: The thrombin-catalyzed rate was monitored in a Cary 19 spectrophotometer at 405 nm and recorded continuously as a function of time. Kinetics were performed at room temperature (25°±1°C.) in a 0.05M Tris, pH 7.5, 0.1M NaCl buffer.
For a typical enzyme reaction, 1.0 ml of buffer was added to both the sample and reference cuvettes. […] Immediately following addition of substrate, the contents of the sample cuvette were mixed by use of a plastic pipette. The reaction was monitored spectrophotometrically for 5-15 minutes.
Initial rate velocities at each substrate concentration were expressed as moles Spectrozyme TH hydrolyzed/sec/mole thrombin. This was determined during the initial linear phase of the reaction (≤15% total hydrolysis of substrate) by measuring the slope of the hydrolytic reaction. Lineweaver-Burke plots were constructed accordingly, by plotting the inverse of the initial velocity against the inverse of the substrate concentration.

human α-thrombin [3] = target: T1, human α-thrombin; assay: Cleavage of Hirulogs by thrombin (chromogenic and HPLC assays); assay type: biochemical; conditions: turnover rate of Hirulog hydrolysis by thrombin
Procedure: Aliquots (0.975 ml) of the reaction mixtures were removed at various times and mixed in a cuvette with 0.025 ml Spectrozyme TH (11 μM final concentration), a chromogenic substrate. The initial rate of reaction was determined and, based on control mixtures containing thrombin in the absence of Hirulog, the % inhibition was calculated.
An alternate method employed reverse-phase HPLC separation of aliquots from a Hirulog/thrombin reaction mixture. In this assay we added human α-thrombin (0.25 μM final concentrations) to a reaction vessel containing one of the above Hirulogs (12.5 μM final concentration). Aliquots (50 μl) were removed both prior to and at various times following the addition of thrombin. The aliquots were either flash frozen of injected directly onto the HPLC column. The HPLC system employed an Applied Biosystems Liquid Chromatography System equipped with an Aquapore C, column (0.46×10 cm). The column was equilibrated in 70% solvent A (0.1% TFA in water) and 30% solvent B (0.085% TFA/70% acetonitrile) and developed with a linear gradient of from 30 to 50% solvent B over 30 minutes at a flow rate of 1 ml/minute. The effluent stream was monitored at 214 nm. Peptide concentrations were determined by measurement of peak heights.
Both of the above-described assays allow determination of the rate of Hirulog hydrolysis by thrombin (expressed in M/min) and turnover rate (kcat; expressed in min^-1).

human α-thrombin [4] = assay: human α-thrombin in 20 mM Tris-HCl pH 7.4 containing 0.1M NaCl
[5] = test system: human α-thrombin (1.6 nM chromogenic assay; 0.25 μM HPLC assay); assay: as above

Molecule: CC1CNc2c(cccc2S(=O)(=O)N[C@@H](CCCNC(=N)N)C(=O)N2CC[C@@H](C)C[C@@H]2C(=O)O)C1 (stereo partly drawn) [Argipidine (MD805), argatroban (argipidine)]
- APTT (% control) (APTT): > 900 % control
- Bleeding Time (hemostasis; in vivo): > 30 min
- ED50 [1]: 550 nmol/kg/min

Molecule: N=C(N)c1ccccc1 [Benzamidine, benzamidine]
- APTT (% control) (APTT): 757.6 % control
- Bleeding Time (hemostasis; dose not given): 10 min
- ED50 [1]: 3000 nmol/kg/min

Molecule: CC[C@H](C)[C@H](NC(=O)[C@H](CCC(=O)O)NC(=O)[C@H](CCC(=O)O)NC(=O)[C@H](Cc1ccccc1)NC(=O)[C@H](CC(=O)O)NC(=O)CNC(=O)[C@H](CC(N)=O)NC(=O)CNC(=O)CNC(=O)CNC(=O)CNC(=O)CNC(=O)CN(C)C(=O)[C@H](CCCNC(=N)N)NC(=O)[C@@H]1CCCN1C(=O)[C@H](N)Cc1ccccc1)C(=O)N1CCC[C@H]1C(=O)N[C@@H](CCC(=O)O)C(=O)N[C@@H](CCC(=O)O)C(=O)N[C@@H](Cc1ccc(O)cc1)C(=O)N[C@@H](CC(C)C)C(=O)O [Hirulog-10]
- inhibition of thrombin-catalyzed hydrolysis of Spectrozyme TH (in words) (human α-thrombin [2]): poor inhibitors
- Ki (human α-thrombin [2]; Ki): > 2 µM
- kcat (human α-thrombin [3]): 0.167 s⁻¹

Molecule: CC[C@H](C)[C@H](NC(=O)[C@H](CCC(=O)O)NC(=O)[C@H](CCC(=O)O)NC(=O)[C@H](Cc1ccccc1)NC(=O)[C@H](CC(=O)O)NC(=O)CNC(=O)[C@H](CC(N)=O)NC(=O)CNC(=O)CNC(=O)[C@@H]1CCCN1C(=O)[C@H](CCCNC(=N)N)NC(=O)[C@@H]1CCCN1C(=O)[C@H](N)Cc1ccccc1)C(=O)N1CCC[C@H]1C(=O)N[C@@H](CCC(=O)O)C(=O)N[C@@H](CCC(=O)O)C(=O)N[C@@H](Cc1ccc(O)cc1)C(=O)N[C@@H](CC(C)C)C(=O)O [Hirulog-13]
- reduction of activity (human α-thrombin [2]; 18 Å linker length, versus Hirulogs-8, -15, -16): more than 10 fold

Molecule: CC[C@H](C)[C@H](NC(=O)[C@H](CCC(=O)O)NC(=O)[C@H](CCC(=O)O)NC(=O)[C@H](Cc1ccccc1)NC(=O)[C@H](CC(=O)O)NC(=O)CNC(=O)[C@H](CC(N)=O)NC(=O)CNC(=O)CNC(=O)CNC(=O)CNC(=O)CNC(=O)CNC(=O)[C@@H]1CCCN1C(=O)[C@H](CCCNC(=N)N)NC(=O)[C@@H]1CCCN1C(=O)[C@H](N)Cc1ccccc1)C(=O)N1CCC[C@H]1C(=O)N[C@@H](CCC(=O)O)C(=O)N[C@@H](CCC(=O)O)C(=O)N[C@@H](Cc1ccc(O)cc1)C(=O)N[C@@H](CC(C)C)C(=O)O [Hirulog-15]
- inhibitory activity versus linker length (human α-thrombin [2]): comparable inhibitory activities

Molecule: CC[C@H](C)[C@H](NC(=O)[C@H](CCC(=O)O)NC(=O)[C@H](CCC(=O)O)NC(=O)[C@H](Cc1ccccc1)NC(=O)[C@H](CC(=O)O)NC(=O)CNC(=O)[C@H](CC(N)=O)NC(=O)CNC(=O)CNC(=O)CNC(=O)CNC(=O)CNC(=O)CNC(=O)CNC(=O)CNC(=O)[C@@H]1CCCN1C(=O)[C@H](CCCNC(=N)N)NC(=O)[C@@H]1CCCN1C(=O)[C@H](N)Cc1ccccc1)C(=O)N1CCC[C@H]1C(=O)N[C@@H](CCC(=O)O)C(=O)N[C@@H](CCC(=O)O)C(=O)N[C@@H](Cc1ccc(O)cc1)C(=O)N[C@@H](CC(C)C)C(=O)O [Hirulog-16]
- inhibitory activity versus linker length (human α-thrombin [2]): comparable inhibitory activities

Molecule: CC[C@H](C)[C@H](NC(=O)[C@H](CCC(=O)O)NC(=O)[C@H](CCC(=O)O)NC(=O)[C@H](Cc1ccccc1)NC(=O)[C@H](CC(=O)O)NC(=O)CNC(=O)[C@H](CC(N)=O)NC(=O)CNC(=O)CNC(=O)CNC(=O)CNC(=O)CNC(=O)C[C@H](CCCNC(=N)N)NC(=O)[C@@H]1CCCN1C(=O)[C@H](N)Cc1ccccc1)C(=O)N1CCC[C@H]1C(=O)N[C@@H](CCC(=O)O)C(=O)N[C@@H](CCC(=O)O)C(=O)N[C@@H](Cc1ccc(O)cc1)C(=O)N[C@@H](CC(C)C)C(=O)O [Hirulog-18a]
- Ki (human α-thrombin [2]; Ki): 0.0074 µM

Molecule: CC[C@H](C)[C@H](NC(=O)[C@H](CCC(=O)O)NC(=O)[C@H](CCC(=O)O)NC(=O)[C@H](Cc1ccccc1)NC(=O)[C@H](CC(=O)O)NC(=O)CNC(=O)[C@H](CC(N)=O)NC(=O)CNC(=O)CNC(=O)CNC(=O)CNC(=O)[C@@H]1CCCN1C(=O)C[C@H](CCCNC(=N)N)NC(=O)[C@@H]1CCCN1C(=O)[C@H](N)Cc1ccccc1)C(=O)N1CCC[C@H]1C(=O)N[C@@H](CCC(=O)O)C(=O)N[C@@H](CCC(=O)O)C(=O)N[C@@H](Cc1ccc(O)cc1)C(=O)N[C@@H](CC(C)C)C(=O)O [Hirulog-18b]
- Ki (human α-thrombin [2]; Ki): 0.0046 µM

Molecule: CC[C@H](C)[C@H](NC(=O)[C@H](CCC(=O)O)NC(=O)[C@H](CCC(=O)O)NC(=O)[C@H](Cc1ccccc1)NC(=O)[C@H](CC(=O)O)NC(=O)CNC(=O)[C@H](CC(N)=O)NC(=O)CNC(=O)CNC(=O)CNC(=O)CNC(=O)[C@@H](NC(=O)C[C@H](CCCNC(=N)N)NC(=O)[C@@H]1CCCN1C(=O)[C@H](N)Cc1ccccc1)C(C)C)C(=O)N1CCC[C@H]1C(=O)N[C@@H](CCC(=O)O)C(=O)N[C@@H](CCC(=O)O)C(=O)N[C@@H](Cc1ccc(O)cc1)C(=O)N[C@@H](CC(C)C)C(=O)O [Hirulog-18c]
- Ki (human α-thrombin [2]; Ki): 0.205 µM

Molecule: CC[C@H](C)[C@H](NC(=O)[C@H](CCC(=O)O)NC(=O)[C@H](CCC(=O)O)NC(=O)[C@H](Cc1ccccc1)NC(=O)[C@H](CC(=O)O)NC(=O)CNC(=O)[C@H](CC(N)=O)NC(=O)CNC(=O)CNC(=O)CNC(=O)CNC(=O)CNC[C@H](CCCNC(=N)N)NC(=O)[C@@H]1CCCN1C(=O)[C@H](N)Cc1ccccc1)C(=O)N1CCC[C@H]1C(=O)N[C@@H](CCC(=O)O)C(=O)N[C@@H](CCC(=O)O)C(=O)N[C@@H](Cc1ccc(O)cc1)C(=O)N[C@@H](CC(C)C)C(=O)O [Hirulog-19]
- Ki (human α-thrombin [2]; Ki): 0.02 µM

Molecule: CC[C@H](C)[C@H](NC(=O)[C@H](CCC(=O)O)NC(=O)[C@H](CCC(=O)O)NC(=O)[C@H](Cc1ccccc1)NC(=O)[C@H](CC(=O)O)NC(=O)CNC(=O)[C@H](CC(N)=O)NC(=O)CNC(=O)CNC(=O)CNC(=O)CNC(=O)CNC(=O)[C@H](CCCNC(=N)N)NC(=O)[C@@H]1CCCN1C(=O)[C@H](N)Cc1ccccc1)C(=O)N1CCC[C@H]1C(=O)N[C@@H](CCC(=O)O)C(=O)N[C@@H](CCC(=O)O)C(=O)N[C@@H](Cc1ccc(O)cc1)C(=O)N[C@@H](CC(C)C)C(=O)O [Hirulog-32]
- inhibition of thrombin-catalyzed hydrolysis of Spectrozyme TH (in words) (human α-thrombin [2]): poor inhibitors
- Ki (human α-thrombin [2]; Ki): > 2 µM
- kcat (human α-thrombin [3]): 8.92 s⁻¹

Molecule: NC(N)=NCCC[C@H](NC(=O)[C@@H]1CCCN1C(=O)[C@H](N)Cc1ccccc1)C(=O)CCl [PPACK, D-Phe-Pro-Arg-CHCl2]
- APTT (% control) (APTT): 287.9 % control
- Bleeding Time (hemostasis; dose not given): 12 min
- ED50 [1]: 75 nmol/kg/min

Molecule: H-(D-Phe)-Pro-(β-homoarginine)-Pro-(Gly)4 -Asn-Gly-Asp-Phe-Glu-Glu-Ile-Pro-Glu-Glu-Tyr-Leu-OH
- not cleaved (human α-thrombin [4]): kcat <0.01 min^-1; resistant to thrombin cleavage

Molecule: H-(D-Phe)-Pro-(β-homoarginine)-Val-(Gly)4 -Asn-Gly-Asp-Phe-Glu-Glu-Ile-Pro-Glu-Glu-Tyr-Leu-OH
- not cleaved (human α-thrombin [4]): kcat <0.01 min^-1; resistant to thrombin cleavage

Molecule: H-(D-Phe)-Pro-Arg-(Gly)5 -Asn-Gly-Asp-Phe-Glu-Glu-Ile-Pro-Glu-Glu-Tyr-Leu-OH
- cleaved bond [5]: Arg-Gly

Molecule: H-(D-Phe)-Pro-Arg-Pro-(Gly)4 -Asn-Gly-Asp-Phe-Glu-Glu-Ile-Pro-Glu-Glu-Tyr-Leu-OH
- cleaved bond [5]: Arg-Pro, minor

Molecule: H-(D-Phe)-Pro-Arg-Sar-(Gly)5 -Asn-Gly-Asp-Phe-Glu-Glu-Ile-Pro-Glu-Glu-Tyr-Leu-OH
- cleaved bond [5]: Arg-Sar

Molecule: N-acetyl-Gly-Asp-phe-Leu-Ala-Glu-(Gly)3 -Val-Arg-Pro-(Gly)4 -Asn-Gly-Asp-Phe-Glu-Glu-Ile-Pro-Glu-Glu-Tyr-Leu-OH
- cleaved bond [5]: Arg-Pro, minor

Molecule: N-acetyl-Gly-Asp-phe-Leu-Ala-Glu-(Gly)3 -Val-Arg-Pro-(Gly)4 -Asn-Gly-Asp-Phe-Glu-Glu-Ile-Pro-Glu-Glu-Tyr-Leu-OH [Hirulog-33]
- Ki (human α-thrombin [2]; read-out: Ki): 0.0036 µM
- kcat (human α-thrombin [3]): 0.000933 s⁻¹
